Assay [1] deals with rat α3β4 nAChR (Rattus norvegicus, UniProt P04757+P12392). The assay can be described thus: cell-based.
The target of assay [2] is rat α6/α3β4 nAChR (Rattus norvegicus, UniProt P04757+P12392+P43143). Briefly: cell-based.
Setting [3] is: α6/α3β4 IC50 (half-blocking dose).

Peptide text beside a SMILES is read from it.

Chain of rat α3β4 nAChR (P04757 26-499 limits assumed): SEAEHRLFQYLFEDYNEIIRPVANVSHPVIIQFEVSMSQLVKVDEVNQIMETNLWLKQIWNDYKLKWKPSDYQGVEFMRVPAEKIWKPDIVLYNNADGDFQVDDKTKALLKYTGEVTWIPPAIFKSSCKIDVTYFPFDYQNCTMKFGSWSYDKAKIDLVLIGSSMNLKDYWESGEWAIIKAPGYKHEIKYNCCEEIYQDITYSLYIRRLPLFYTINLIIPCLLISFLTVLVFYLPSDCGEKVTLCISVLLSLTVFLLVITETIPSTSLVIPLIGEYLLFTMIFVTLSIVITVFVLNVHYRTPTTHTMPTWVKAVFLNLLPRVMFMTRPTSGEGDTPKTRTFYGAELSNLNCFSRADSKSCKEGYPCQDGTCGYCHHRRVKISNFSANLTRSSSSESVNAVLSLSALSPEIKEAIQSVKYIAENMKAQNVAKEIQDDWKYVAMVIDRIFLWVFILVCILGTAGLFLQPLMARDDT
Chain of rat α3β4 nAChR (P12392 21-495 limits assumed): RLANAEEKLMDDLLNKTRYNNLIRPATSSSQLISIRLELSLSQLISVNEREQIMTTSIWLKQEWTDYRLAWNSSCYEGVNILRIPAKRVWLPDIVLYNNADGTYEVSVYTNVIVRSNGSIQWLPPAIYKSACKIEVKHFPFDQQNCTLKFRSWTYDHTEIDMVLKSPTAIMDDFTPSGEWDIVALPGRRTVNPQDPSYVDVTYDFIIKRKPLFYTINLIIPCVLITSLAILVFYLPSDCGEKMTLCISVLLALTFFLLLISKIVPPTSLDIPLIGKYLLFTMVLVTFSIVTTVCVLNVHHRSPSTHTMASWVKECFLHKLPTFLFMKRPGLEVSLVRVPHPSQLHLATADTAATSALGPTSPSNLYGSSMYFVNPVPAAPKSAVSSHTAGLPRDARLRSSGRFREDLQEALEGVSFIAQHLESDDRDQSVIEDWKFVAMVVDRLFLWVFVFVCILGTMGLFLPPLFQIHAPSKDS
Chain of rat α6/α3β4 nAChR (P04757 whole entry, looked up): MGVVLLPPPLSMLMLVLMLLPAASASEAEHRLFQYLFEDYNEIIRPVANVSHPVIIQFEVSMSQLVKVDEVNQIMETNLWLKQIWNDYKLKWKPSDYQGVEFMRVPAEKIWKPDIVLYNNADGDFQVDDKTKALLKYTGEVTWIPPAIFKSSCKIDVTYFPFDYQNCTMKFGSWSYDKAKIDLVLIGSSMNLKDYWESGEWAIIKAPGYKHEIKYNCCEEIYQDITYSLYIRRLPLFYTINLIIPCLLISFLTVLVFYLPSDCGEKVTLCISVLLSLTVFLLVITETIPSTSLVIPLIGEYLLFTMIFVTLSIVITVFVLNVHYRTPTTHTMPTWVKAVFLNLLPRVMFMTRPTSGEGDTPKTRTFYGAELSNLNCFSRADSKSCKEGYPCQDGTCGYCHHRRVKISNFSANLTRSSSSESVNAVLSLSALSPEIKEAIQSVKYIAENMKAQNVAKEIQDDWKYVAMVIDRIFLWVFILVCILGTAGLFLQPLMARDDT
Chain of rat α6/α3β4 nAChR (P12392 whole entry, looked up): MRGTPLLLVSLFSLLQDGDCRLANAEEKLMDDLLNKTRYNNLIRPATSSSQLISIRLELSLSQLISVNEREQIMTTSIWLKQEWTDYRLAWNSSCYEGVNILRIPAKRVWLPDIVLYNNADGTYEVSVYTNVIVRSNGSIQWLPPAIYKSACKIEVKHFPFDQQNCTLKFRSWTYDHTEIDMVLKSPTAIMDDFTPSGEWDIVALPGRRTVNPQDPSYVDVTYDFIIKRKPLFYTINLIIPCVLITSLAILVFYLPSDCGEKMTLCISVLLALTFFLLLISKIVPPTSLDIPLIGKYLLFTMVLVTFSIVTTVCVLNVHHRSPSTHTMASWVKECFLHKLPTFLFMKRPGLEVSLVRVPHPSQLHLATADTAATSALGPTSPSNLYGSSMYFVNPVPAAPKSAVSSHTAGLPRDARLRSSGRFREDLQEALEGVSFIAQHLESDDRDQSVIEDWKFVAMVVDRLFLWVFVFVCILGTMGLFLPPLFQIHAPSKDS
Chain of rat α6/α3β4 nAChR (P43143 whole entry, looked up): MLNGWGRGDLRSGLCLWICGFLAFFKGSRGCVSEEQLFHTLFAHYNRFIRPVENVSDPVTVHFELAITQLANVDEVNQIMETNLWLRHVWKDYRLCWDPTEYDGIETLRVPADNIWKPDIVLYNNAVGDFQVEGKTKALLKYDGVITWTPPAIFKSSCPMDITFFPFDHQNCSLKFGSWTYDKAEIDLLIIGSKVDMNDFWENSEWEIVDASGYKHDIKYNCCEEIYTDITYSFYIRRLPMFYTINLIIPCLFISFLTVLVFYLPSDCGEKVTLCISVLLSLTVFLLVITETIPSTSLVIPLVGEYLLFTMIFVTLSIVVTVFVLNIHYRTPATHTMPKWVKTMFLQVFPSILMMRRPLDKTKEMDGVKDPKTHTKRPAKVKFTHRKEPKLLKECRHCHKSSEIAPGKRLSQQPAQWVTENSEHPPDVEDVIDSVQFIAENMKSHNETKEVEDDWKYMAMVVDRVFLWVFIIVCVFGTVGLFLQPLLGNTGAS

Turning to `CC[C@H](C)[C@@H]1NC(=O)[C@@H]2CCCN2C(=O)[C@H](CO)NC(=O)[C@H](CCSC)NC(=O)[C@H](C)NC(=O)[C@H](Cc2cnc[nH]2)NC(=O)[C@@H]2CSSC[C@H](NC(=O)CN)C(=O)N[C@@H](CSSC[C@@H](C(N)=O)NC1=O)C(=O)N[C@@H](CO)C(=O)N[C@@H](Cc1cnc[nH]1)C(=O)N1CCC[C@H]1C(=O)N[C@@H](C(C)C)C(=O)N2` [TxID[S9H]] (HELM PEPTIDE1{G.C.C.S.H.P.V.C.H.A.M.S.P.I.C.[am]}$PEPTIDE1,PEPTIDE1,2:R3-8:R3|PEPTIDE1,PEPTIDE1,3:R3-15:R3$$$V2.0), the IC50 in assay [1] (α3β4 IC50) came out at 1.96 nM; in assay [1] (α3β4 IC50 (half-blocking dose)), 2.61 nM; in assay [2] (α6/α3β4 IC50), 18.7 nM; in assay [2] (setting [3]) it was 14.7 nM.

For `CC[C@H](C)[C@@H]1NC(=O)[C@@H]2CCCN2C(=O)[C@H](CO)NC(=O)[C@H](CCSC)NC(=O)[C@H](C)NC(=O)[C@H](CO)NC(=O)[C@@H]2CSSC[C@H](NC(=O)CN)C(=O)N[C@@H](CSSC[C@@H](C(N)=O)NC1=O)C(=O)N[C@@H](CO)C(=O)N[C@@H](Cc1c[nH]cn1)C(=O)N[C@@H](C)C(=O)N[C@@H](C(C)C)C(=O)N2` [TxID[P6A]] (HELM PEPTIDE1{G.C.C.S.H.A.V.C.S.A.M.S.P.I.C.[am]}$PEPTIDE1,PEPTIDE1,2:R3-8:R3|PEPTIDE1,PEPTIDE1,3:R3-15:R3$$$V2.0), the IC50 in assay [1] (α3β4 IC50 (half-blocking dose)) and in assay [2] (setting [3]) was more than 10000 nM throughout.

With `CC[C@H](C)[C@@H]1NC(=O)[C@@H]2CCCN2C(=O)[C@H](CO)NC(=O)[C@H](CCSC)NC(=O)[C@H](C)NC(=O)[C@H](CCCNC(=N)N)NC(=O)[C@H](CO)NC(=O)[C@@H]2CSSC[C@H](NC(=O)CN)C(=O)N[C@@H](CSSC[C@@H](C(N)=O)NC1=O)C(=O)N[C@@H](CO)C(=O)N[C@@H](Cc1c[nH]cn1)C(=O)N1CCC[C@H]1C(=O)N[C@@H](C(C)C)C(=O)N2` [TxID[10R]] (HELM PEPTIDE1{G.C.C.S.H.P.V.C.S.R.A.M.S.P.I.C.[am]}$PEPTIDE1,PEPTIDE1,2:R3-8:R3|PEPTIDE1,PEPTIDE1,3:R3-16:R3$$$V2.0), the IC50 in assay [1] (α3β4 IC50 (half-blocking dose)) and in assay [2] (setting [3]) was more than 10000 nM throughout.

Consider `CC[C@H](C)[C@@H]1NC(=O)[C@@H]2CCCN2C(=O)[C@H](CO)NC(=O)[C@H](CC(C)C)NC(=O)[C@H](C)NC(=O)[C@H](C)NC(=O)[C@@H]2CSSC[C@H](NC(=O)CN)C(=O)N[C@@H](CSSC[C@@H](C(N)=O)NC1=O)C(=O)N[C@@H](CO)C(=O)N[C@@H](Cc1c[nH]cn1)C(=O)N1CCC[C@H]1C(=O)N[C@@H](C(C)C)C(=O)N2` [TxID[S9A, M11I]] (HELM PEPTIDE1{G.C.C.S.H.P.V.C.A.A.L.S.P.I.C.[am]}$PEPTIDE1,PEPTIDE1,2:R3-8:R3|PEPTIDE1,PEPTIDE1,3:R3-15:R3$$$V2.0), for which the “α3β4 IC50 ratio” value in assay [1] is on record as 8.4. In assay [2], the “IC50 ratio of α6/α3β4 vs. α3β4 (Discrimination)” value is 0.3 and the “α6/α3β4 IC50 ratio” value came to 3.0.

Regarding `CC[C@H](C)[C@@H]1NC(=O)[C@@H]2CCCN2C(=O)[C@H](CO)NC(=O)[C@H](CCSC)NC(=O)[C@H](C)NC(=O)[C@H](Cc2ccccc2)NC(=O)[C@@H]2CSSC[C@H](NC(=O)CN)C(=O)N[C@@H](CSSC[C@@H](C(N)=O)NC1=O)C(=O)N[C@@H](CO)C(=O)N[C@@H](Cc1c[nH]cn1)C(=O)N1CCC[C@H]1C(=O)N[C@@H](C(C)C)C(=O)N2` [TxID[S9F]] (HELM PEPTIDE1{G.C.C.S.H.P.V.C.F.A.M.S.P.I.C.[am]}$PEPTIDE1,PEPTIDE1,2:R3-8:R3|PEPTIDE1,PEPTIDE1,3:R3-15:R3$$$V2.0), in assay [1], the “binding (blocking) activity to α3β4 nAChR compared with wild type TxID” value is recorded as “not significantly different from the activity of the wild type TxID”, the “elution after blocking the α3β4 nAChR current” value is given as “very slow” and the “α3β4 IC50 ratio” value came out at 3.8. For the same compound, in assay [2], the “IC50 ratio of α6/α3β4 vs. α3β4 (Discrimination)” value was 0.5, the “binding (blocking) activity to α6/α3β4 nAChR compared with wild type TxID” value is recorded as “not significantly different from the activity of the wild type TxID”, the “elution rate after blocking α6/α3β4 nAChR current” value was “significantly slower than those of other polypeptides” and the “α6/α3β4 IC50 ratio” value was determined as 0.2.

Broadly, the IC50 is the concentration that gives 50% inhibition. A low value points to greater potency.

Values taken from patent US20190330275A1 (priority 2016, published 2019).
